From the Deep4Chem optical property database
Values belong to the compound of their own block, whether it stands above or below them.

Experiment: solvent given as SMILES

Structure (SMILES): N#Cc1ccc(N(c2ccc(C#N)cc2)c2ccc3c4cccc5c(N(c6ccc(C#N)cc6)c6ccc(C#N)cc6)ccc(c6cccc2c63)c54)cc1
absorption maximum (in C1CCCCC1): 446 nm | absorption maximum (in C1CCOC1): 452 nm | absorption maximum (in CC#N): 446 nm | absorption maximum (in Cc1ccccc1): 451 nm | absorption maximum (in ClCCl): 450 nm

Structure (SMILES): c1ccc2nc3c(nc2c1)c1c2n3CCCN2CCCC1
absorption maximum (in CC#N): 419 nm | absorption maximum (in CCCCCC): 408 nm | absorption maximum (in CS(C)=O): 441 nm

Structure (SMILES): c1ccc2c(c1)Sc1ccccc1N2c1ccc2c(c1)C1(CCCC1)c1cc(N3c4ccccc4Sc4ccccc43)ccc1-2
absorption maximum (in Cc1ccccc1): 308 nm

Structure (SMILES): CC(=O)Nc1ccc(O)cc1
absorption maximum (in C1CCOC1): 293 nm | absorption maximum (in CC#N): 290 nm | absorption maximum (in CCCCO): 290 nm | absorption maximum (in CO): 290 nm | absorption maximum (in CS(C)=O): 293 nm

Structure (SMILES): O=P1(c2ccccc2)c2ccc(N3c4ccccc4Sc4ccccc43)cc2-c2cc(N3c4ccccc4Sc4ccccc43)ccc21
absorption maximum (in Cc1ccccc1): 422 nm

Structure (SMILES): COc1cccc(C2=CC3=C(c4c(C)cc(C)cc4C)c4cc(-c5cccc(OC)c5)c(-c5cccc(OC)c5)n4[B-](F)(F)[N+]3=C2c2cccc(OC)c2)c1
absorption maximum (in C1CCCCC1): 596 nm | absorption maximum (in C1CCOC1): 592 nm | absorption maximum (in CC#N): 581 nm | absorption maximum (in Cc1ccccc1): 596 nm | absorption maximum (in ClCCl): 588 nm

Structure (SMILES): COc1cc(-c2nc(-c3ccccc3)c(-c3ccccc3)[nH]2)c(OC)cc1/C=C/c1ccncc1
absorption maximum (in C1CCOC1): 394 nm | absorption maximum (in CC#N): 392 nm | absorption maximum (in CN(C)C=O): 397 nm | absorption maximum (in Cc1ccccc1): 398 nm

Structure (SMILES): CSc1sc(C(C)=O)c2nn[nH]c(=O)c12
absorption maximum (in C1CCOC1): 392.5 nm | absorption maximum (in CC#N): 393 nm | absorption maximum (in CCO): 397 nm | absorption maximum (in CN(C)C=O): 404 nm | absorption maximum (in CO): 396 nm | absorption maximum (in CS(C)=O): 400.5 nm

Structure (SMILES): COc1ccc2ccc(O)cc2c1
absorption maximum (in O): 325 nm

Structure (SMILES): CCC1=C(C)C2=Cc3c(I)c(I)c(I)n3[B-](F)(F)[N+]2=C1C
absorption maximum (in C1CCCCC1): 543.5 nm | absorption maximum (in CC(C)=O): 528 nm | absorption maximum (in CCO): 536 nm | absorption maximum (in CCOC(C)=O): 532 nm | absorption maximum (in CO): 531.5 nm | absorption maximum (in OCC(F)(F)F): 523 nm

Structure (SMILES): CN1C(C(=O)Nc2ccccn2)=C(O)c2sccc2S1(=O)=O
absorption maximum (in C1COCCO1): 344 nm | absorption maximum (in CC#N): 355 nm | absorption maximum (in CCCCO): 350 nm | absorption maximum (in CCCO): 350 nm | absorption maximum (in CCO): 351 nm | absorption maximum (in CCOC(C)=O): 342 nm | absorption maximum (in CO): 354 nm

Structure (SMILES): CNC(=O)[C@H](C)NC(=O)c1cccc2c1C#Cc1c(N)cccc1OCCCO2
absorption maximum (in CC#N): 347 nm | absorption maximum (in ClCCl): 345 nm

Structure (SMILES): CN(C)c1ccc(/C=C/c2cc[n+](C)c3ccccc23)cc1
absorption maximum (in CC(C)=O): 540 nm | absorption maximum (in ClCCl): 581 nm | absorption maximum (in O): 510 nm

Structure (SMILES): CCCCOc1ccc(-c2oc3cc4n(c3c2-c2ccc(OCCCC)cc2)[B-](F)(F)[N+]2=Cc3cc5oc(-c6ccc(OCCCC)cc6)c(-c6ccc(OCCCC)cc6)c5n3[B-](F)(F)[N+]2=C4)cc1
absorption maximum (in C1CCOC1): 596 nm | absorption maximum (in CN(C)C=O): 593 nm | absorption maximum (in CS(C)=O): 594 nm | absorption maximum (in Cc1ccccc1): 608 nm | absorption maximum (in ClC(Cl)Cl): 610 nm | absorption maximum (in ClCCl): 606 nm

Structure (SMILES): CCC1=C(C)C2=Cc3cc4c(cc3B(O)N2C1=O)OCO4
absorption maximum (in CC#N): 383 nm | absorption maximum (in CO): 381 nm | absorption maximum (in CS(C)=O): 384 nm | absorption maximum (in ClC(Cl)Cl): 389 nm

Structure (SMILES): COc1cc2cc(C#Cc3ccc(/C=C(\C#N)C(=O)O)cc3)c(=O)oc2cc1OC
absorption maximum (in CC#N): 398 nm

Structure (SMILES): Fc1ccc(-c2nc3n(c2-c2ccncc2)CCS3)cc1
absorption maximum (in C1CCCCC1): 328 nm | absorption maximum (in C1CCOC1): 328.5 nm | absorption maximum (in C1COCCO1): 328.5 nm | absorption maximum (in CC#N): 319 nm | absorption maximum (in CC(C)(C)O): 329.5 nm | absorption maximum (in CC(C)O): 328 nm | absorption maximum (in CCO): 325 nm | absorption maximum (in CCOC(C)=O): 319 nm | absorption maximum (in CN(C)C=O): 326.5 nm | absorption maximum (in CNC=O): 325.5 nm | absorption maximum (in CO): 322.5 nm | absorption maximum (in CS(C)=O): 329 nm | absorption maximum (in Cc1ccc(C)cc1): 332 nm | absorption maximum (in Cc1ccccc1): 333.5 nm | absorption maximum (in ClC(Cl)Cl): 329 nm | absorption maximum (in ClCCl): 326 nm | absorption maximum (in O): 322 nm | absorption maximum (in OCCO): 330 nm

Structure (SMILES): Cc1nc2c(c[n+]1C)CN1C(=O)N([C@H]3O[C@@H](CO)[C@H](O)[C@@H]3O)C=CC1=N2
absorption maximum (in CC#N): 390 nm | absorption maximum (in CC(C)=O): 391 nm | absorption maximum (in CCCCO): 390 nm | absorption maximum (in CCCO): 390 nm | absorption maximum (in CCO): 390 nm | absorption maximum (in CO): 390 nm | absorption maximum (in O): 384 nm | absorption maximum (in [2H]OC): 390 nm | absorption maximum (in [2H]OCC): 390 nm | absorption maximum (in [2H]O[2H]): 384 nm

Structure (SMILES): CC(=O)[B-]1(C(C)=O)OC(c2ccccc2)=CC(c2ccccc2)=[O+]1
absorption maximum (in CC#N): 377 nm | absorption maximum (in ClC(Cl)(Cl)Cl): 382 nm

Structure (SMILES): CCCCC(CC)CN1C(=O)c2cccc3c(C#Cc4ccc(N(c5ccccc5)c5ccc(C#Cc6ccc7c8c(cccc68)C(=O)N(CC(CC)CCCC)C7=O)cc5)cc4)ccc(c23)C1=O (stereo not drawn)
absorption maximum (in C1CCCCC1): 453 nm | absorption maximum (in C1CCOC1): 451 nm | absorption maximum (in CC#N): 456 nm | absorption maximum (in Cc1ccccc1): 452 nm | absorption maximum (in ClC(Cl)Cl): 466 nm

Results, then the compound that gave them:

absorption maximum (in ClCCl): 368 nm
Structure (SMILES): C[Si]1(C)O[Si](C)(C)c2cc3c(-c4ccccc4)c4ccccc4nc3cc21

absorption maximum (in ClCCl): 643 nm
Structure (SMILES): CC(C)[Si](C#Cc1c2cc3ccccc3cc2c(C#C[Si](C(C)C)(C(C)C)C(C)C)c2cc3ccccc3cc12)(C(C)C)C(C)C

absorption maximum (in ClCCl): 319 nm
Structure (SMILES): CN(C)c1ccc(N2c3sc4ccccc4c3Sc3sc4ccccc4c32)cc1

absorption maximum (in ClC(Cl)Cl): 366 nm
Structure (SMILES): COc1ccc(-c2ccc(-c3ccc(OC)cc3)c3nc(-c4ccccc4)c(-c4ccccc4)nc23)cc1

absorption maximum (in C1CCCCC1): 428 nm | absorption maximum (in C1CCOC1): 429 nm | absorption maximum (in CC#N): 427 nm
Structure (SMILES): Cn1nc(-c2ccccc2)c2nc3cc(Cl)ccc3nc21

absorption maximum (in ClCCl): 598 nm
Structure (SMILES): c1ccc(CSc2c3ccc(=[N+]4CCCCC4)cc-3oc3cc(N4CCCCC4)ccc23)cc1

absorption maximum (in ClCCl): 333 nm
Structure (SMILES): COc1ccc(-c2cc3c(ccc4sccc43)s2)cc1

absorption maximum (in CC#N): 402 nm | absorption maximum (in ClCCl): 406 nm
Structure (SMILES): COC(=O)c1cc(=O)n(C)c2cc(-c3ccccc3N(C)C)sc12

absorption maximum (in ClCCl): 500 nm
Structure (SMILES): CCCN1c2ccc(C3=C4C=CC=[N+]4[B-](F)(F)n4cccc43)cc2Sc2cc(C3=C4C=CC=[N+]4[B-](F)(F)n4cccc43)ccc21

absorption maximum (in ClCCl): 500 nm
Structure (SMILES): CCCCCCCCOc1ccc(C2=C3C(C)=CC(C)=[N+]3[B-](F)(F)n3c(C)cc(C)c32)cc1

absorption maximum (in ClC(Cl)Cl): 410 nm
Structure (SMILES): COc1ccc(-c2oc3cccc4c5c(-c6ccc(OC)c(OC)c6)c(=N)oc6cccc(c2c34)c65)cc1OC

absorption maximum (in CN(C)C=O): 525 nm
Structure (SMILES): CCCCCCCCCCCCCCCCCCN1C(=O)c2ccc3c4ccc5c6c(ccc(c7ccc(c2c37)C1=O)c64)C(=O)N(CCCCCCCCCCCCCCCCCC)C5=O

absorption maximum (in CC#N): 701 nm
Structure (SMILES): CC(=O)OC[C@H]1O[C@@H](OCC#Cc2ccc(C3=C4C(C)=CC(/C=C/c5ccc(N(C)C)cc5)=[N+]4[B-](F)(F)n4c(/C=C/c5ccc(N(C)C)cc5)cc(C)c43)cc2)[C@H](OC(C)=O)C(OC(C)=O)[C@@H]1OC(C)=O (stereo partly drawn)

absorption maximum (in ClC(Cl)Cl): 376 nm
Structure (SMILES): CN(C)c1ccc(-c2cc(-c3ccc(C#N)cc3)nc(-c3ccccc3)n2)cc1

absorption maximum (in ClCCl): 375 nm
Structure (SMILES): CC1(C)c2ccccc2N(c2ccc(-c3nc(-c4ccccn4)n(-c4ccc(N5c6ccccc6C(C)(C)c6ccccc65)cc4)n3)cc2)c2ccccc21

absorption maximum (in ClCCl): 514 nm
Structure (SMILES): CCCCCCC1(CCCCCC)c2cc(-c3ccc(-c4ccc(-c5ccc(-c6ccc7c(c6)C(CCCCCC)(CCCCCC)c6cc(-n8c9ccc(-n%10c%11ccccc%11c%11ccccc%11%10)cc9c9cc(-n%10c%11ccccc%11c%11ccccc%11%10)ccc98)ccc6-7)s5)c5nsnc45)s3)ccc2-c2ccc(-n3c4ccc(-n5c6ccccc6c6ccccc65)cc4c4cc(-n5c6ccccc6c6ccccc65)ccc43)cc21

absorption maximum (in C1CCCCC1): 342 nm | absorption maximum (in CC#N): 341 nm | absorption maximum (in CO): 340 nm | absorption maximum (in ClC(Cl)Cl): 344 nm
Structure (SMILES): CC1(C)CC(NCc2ccc3ccc4cccc5ccc2c3c45)CC(C)(C)N1[O]

absorption maximum (in ClCCl): 486 nm
Structure (SMILES): c1ccc(-c2ccc3c4ccc(-c5ccccc5)c5c(-c6ccccc6)ccc(c6ccc(-c7ccccc7)c2c36)c54)cc1

absorption maximum (in CCCCCC): 411 nm
Structure (SMILES): CC(C)[Si](C#Cc1ccc(C#C[Si](C(C)C)(C(C)C)C(C)C)c2nc3c(ccc4ccccc43)nc12)(C(C)C)C(C)C

absorption maximum (in CCOC(C)=O): 419 nm
Structure (SMILES): CCN1CCN(c2ccc(/N=N/c3ccc(C(=O)OC)cc3)cc2)CC1

absorption maximum (in C1CCCCC1): 315 nm | absorption maximum (in CO): 315 nm
Structure (SMILES): C/C(=C\c1ccccc1)c1nc2ccccc2o1

absorption maximum (in CO): 284 nm
Structure (SMILES): Cc1ccc(-c2nc(-c3cc([N+](=O)[O-])ccc3O)[nH]c2-c2ccc(C)cc2)cc1

absorption maximum (in ClCCl): 749 nm
Structure (SMILES): CCN(CC)c1ccc2c(-c3ccccc3C(=O)O)c3c([o+]c2c1)/C(=C/C=C/c1ccc(N(C)C)cc1)CCC3

absorption maximum (in C1CCOC1): 426 nm
Structure (SMILES): CCCCCOc1ccc2c(c1)c1ccc3cccc4c5cccc6oc(=O)c2c(c65)c1c34

absorption maximum (in C1CCOC1): 670 nm | absorption maximum (in CS(C)=O): 675 nm | absorption maximum (in ClCCl): 670 nm
Structure (SMILES): COc1cc(OC)cc(C2=C3C(C)=C(I)C(/C=C/c4ccsc4)=[N+]3[B-](F)(F)n3c(/C=C/c4ccsc4)c(I)c(C)c32)c1

absorption maximum (in C1CCOC1): 733 nm
Structure (SMILES): CCCCCCc1ccsc1-c1ccc2c(c1)C1=[N+]3C2=Cc2c4ccc(-c5sccc5CCCCCC)cc4c4n2[B-]3(Oc2ccccc21)Oc1ccccc1-4 (stereo not drawn)

absorption maximum (in C1CCOC1): 365 nm
Structure (SMILES): COc1ccc(-n2c(-c3ccc(-c4cncc5ccccc45)cc3)nc3c4ccccc4c4ccccc4c32)cc1

absorption maximum (in ClCCl): 425 nm
Structure (SMILES): CC(C)(C)c1ccc(N(c2ccc(C(C)(C)C)cc2)c2cc(N(c3ccc(C(C)(C)C)cc3)c3ccc(C(C)(C)C)cc3)c3ccc4cc(C(C)(C)C)cc5ccc2c3c54)cc1

absorption maximum (in ClC(Cl)Cl): 524 nm
Structure (SMILES): CCCCN1C(=O)c2ccc3c4c(Br)cc5c6c(ccc(c7c(Br)cc(c2c37)C1=O)c64)C(=O)N(CCCC)C5=O
